Measured values: the NIST ThermoML archive (doi:10.1021/je200038n)
± gives the expanded uncertainty stated by the source.

Legend:
[1] = molar heat capacity at constant pressure; settings: 3000 kPa, Liquid, Flow calorimetry
[2] = molar heat capacity at constant pressure; wn = mass fraction of the nth substance listed; settings: 3000 kPa, Liquid, Flow calorimetry, w1 = 1

Row | SMILES | molar heat capacity at constant pressure ([1]; 304.17 K) [J/K/mol] | molar heat capacity at constant pressure ([1]; 314.14 K) [J/K/mol] | molar heat capacity at constant pressure ([1]; 324.11 K) [J/K/mol] | molar heat capacity at constant pressure ([1]; 334.09 K) [J/K/mol] | molar heat capacity at constant pressure ([2]; 304.17 K) [J/K/mol] | molar heat capacity at constant pressure ([2]; 314.14 K) [J/K/mol] | molar heat capacity at constant pressure ([2]; 324.11 K) [J/K/mol] | molar heat capacity at constant pressure ([2]; 334.09 K) [J/K/mol]
1 | N [ammonia] | 82.46 ± 0.53 | 83.45 ± 0.53 | 85.83 ± 0.53 | 89.36 ± 0.53 |  |  |  | 
2 | N [ammonia] + N#C[S-].[Na+] |  |  |  |  | 82.46 ± 0.53 | 83.45 ± 0.53 | 85.83 ± 0.53 | 89.36 ± 0.53
